Here are results for 3 compounds from ChEMBL document CHEMBL1201862, “PubChem BioAssay data set” (2004).

What all share (format): functional
Assay [1] deals with T1, Hexokinase HKDC1 (Homo sapiens, UniProt Q2TB90).
T1 sequence (Q2TB90 whole entry): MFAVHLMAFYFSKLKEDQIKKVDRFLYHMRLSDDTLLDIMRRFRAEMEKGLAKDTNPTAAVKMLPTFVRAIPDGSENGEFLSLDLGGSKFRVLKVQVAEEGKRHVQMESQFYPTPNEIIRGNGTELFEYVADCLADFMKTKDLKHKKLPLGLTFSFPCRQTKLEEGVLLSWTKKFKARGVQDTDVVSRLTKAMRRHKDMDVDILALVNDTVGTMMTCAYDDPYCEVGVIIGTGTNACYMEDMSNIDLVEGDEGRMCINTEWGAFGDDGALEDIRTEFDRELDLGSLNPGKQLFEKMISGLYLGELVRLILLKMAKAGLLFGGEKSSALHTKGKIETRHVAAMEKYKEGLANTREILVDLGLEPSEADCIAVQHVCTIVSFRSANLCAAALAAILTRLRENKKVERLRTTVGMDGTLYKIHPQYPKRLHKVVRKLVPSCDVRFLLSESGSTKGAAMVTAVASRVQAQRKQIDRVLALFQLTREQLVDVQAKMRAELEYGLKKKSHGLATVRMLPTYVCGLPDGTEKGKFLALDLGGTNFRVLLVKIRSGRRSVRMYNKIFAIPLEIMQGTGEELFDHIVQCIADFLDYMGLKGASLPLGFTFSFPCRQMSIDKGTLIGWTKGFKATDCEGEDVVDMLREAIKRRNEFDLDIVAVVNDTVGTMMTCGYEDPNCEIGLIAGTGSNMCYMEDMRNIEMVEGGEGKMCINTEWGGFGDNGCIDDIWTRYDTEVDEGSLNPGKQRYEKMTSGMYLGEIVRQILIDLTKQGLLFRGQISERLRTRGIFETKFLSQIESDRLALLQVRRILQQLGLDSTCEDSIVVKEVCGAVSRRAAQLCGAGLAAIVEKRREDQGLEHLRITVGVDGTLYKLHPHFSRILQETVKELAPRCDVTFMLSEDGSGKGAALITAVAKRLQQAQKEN
Nature of the assay: inhibition of HKDC1 glucose phosphorylation – biochemical, W721R variant, dose response (AID 504729).

Assay [2] deals with Protein kinase C zeta type (Homo sapiens, UniProt Q05513).
The target of assay [3] is Serine/threonine-protein kinase Chk2 (Homo sapiens, UniProt O96017).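 Further: CHEK2 entry within a kinome-wide screening panel.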
Assay [4] has as its target Serine/threonine-protein kinase PAK 1 (Homo sapiens, UniProt Q13153).
Assay [5] has as its target Tyrosine-protein kinase Blk (Homo sapiens, UniProt P51451).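 Further: obtained as one member of a kinome-wide kinase assay panel.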
Assay [6] addresses MAP/microtubule affinity-regulating kinase 3 (Homo sapiens, UniProt P27448).
Assay [7] deals with Insulin receptor (Homo sapiens, UniProt P06213).
Assay [8] addresses Proto-oncogene tyrosine-protein kinase Src (Homo sapiens, UniProt P12931).
The target in assay [9] is RAC-alpha serine/threonine-protein kinase (Homo sapiens, UniProt P31749).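 Further: AKT1 affinity measured as one member of a kinome-wide kinase profiling panel.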
For assay [10], the target named is Serine/threonine-protein kinase pim-2 (Homo sapiens, UniProt Q9P1W9).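 Further: value comes from a broad kinase panel profiling study in which PIM2 was one of the panel members.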
Assay [11] addresses Serine/threonine-protein kinase TBK1 (Homo sapiens, UniProt Q9UHD2). Kind of assay: Navigating the Kinome. Panel member name: TBK1.
For assay [12], the target named is Tyrosine-protein kinase receptor TYRO3 (Homo sapiens, UniProt Q06418).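 Further: TYRO3 value obtained as one member of a kinome-wide profiling panel.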
Assay [13] has as its target Platelet-derived growth factor receptor beta (Homo sapiens, UniProt P09619).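 Further: value comes from a kinome panel, with PDGFRB tested as one panel member.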
The target of assay [14] is Dual specificity tyrosine-phosphorylation-regulated kinase 1B (Homo sapiens, UniProt Q9Y463). Kind of assay: Navigating the Kinome. Panel member name: DYRK1B.
The target in assay [15] is cAMP-dependent protein kinase catalytic subunit PRKX (Homo sapiens, UniProt P51817).
In assay [16] the target is Leucine-rich repeat serine/threonine-protein kinase 2 (Homo sapiens, UniProt Q5S007).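 Further: value from a broad kinome-wide panel profiling study in which LRRK2 was one of the kinases tested.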
For assay [17], the target named is Cyclin-dependent kinase 8 (Homo sapiens, UniProt P49336). Kind of assay: Navigating the Kinome. Panel member name: CDK8.
Assay [18] addresses Cyclin-dependent kinase 7 (Homo sapiens, UniProt P50613).
Assay [19] deals with Dual specificity protein kinase CLK4 (Homo sapiens, UniProt Q9HAZ1).
The target of assay [20] is Inhibitor of nuclear factor kappa-B kinase subunit epsilon (Homo sapiens, UniProt Q14164). Nature of the assay: Navigating the Kinome. Panel member name: IKBKE.
Assay [21] deals with Calcium/calmodulin-dependent protein kinase type II subunit alpha (Homo sapiens, UniProt Q9UQM7). Kind of assay: Navigating the Kinome. Panel member name: CAMK2A.

Calls of active or inactive are those of the source. Where only a bound is given, the exact number is not on record here.

Serine/threonine-protein kinase Chk2, sequence (O96017 whole entry): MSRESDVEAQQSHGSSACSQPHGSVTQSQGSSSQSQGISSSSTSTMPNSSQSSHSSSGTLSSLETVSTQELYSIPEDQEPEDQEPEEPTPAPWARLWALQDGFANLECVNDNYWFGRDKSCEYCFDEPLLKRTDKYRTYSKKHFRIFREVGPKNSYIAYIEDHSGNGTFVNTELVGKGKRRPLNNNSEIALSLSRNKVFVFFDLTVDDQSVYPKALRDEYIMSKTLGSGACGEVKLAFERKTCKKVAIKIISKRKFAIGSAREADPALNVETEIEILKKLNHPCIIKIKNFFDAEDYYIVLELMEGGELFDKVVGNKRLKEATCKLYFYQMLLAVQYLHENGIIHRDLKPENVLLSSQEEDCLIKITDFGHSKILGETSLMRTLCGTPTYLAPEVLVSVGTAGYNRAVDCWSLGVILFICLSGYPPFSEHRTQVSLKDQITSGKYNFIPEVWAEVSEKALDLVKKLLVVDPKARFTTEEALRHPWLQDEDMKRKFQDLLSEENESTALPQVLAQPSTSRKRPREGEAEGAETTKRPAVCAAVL
Serine/threonine-protein kinase TBK1, sequence (Q9UHD2 whole entry): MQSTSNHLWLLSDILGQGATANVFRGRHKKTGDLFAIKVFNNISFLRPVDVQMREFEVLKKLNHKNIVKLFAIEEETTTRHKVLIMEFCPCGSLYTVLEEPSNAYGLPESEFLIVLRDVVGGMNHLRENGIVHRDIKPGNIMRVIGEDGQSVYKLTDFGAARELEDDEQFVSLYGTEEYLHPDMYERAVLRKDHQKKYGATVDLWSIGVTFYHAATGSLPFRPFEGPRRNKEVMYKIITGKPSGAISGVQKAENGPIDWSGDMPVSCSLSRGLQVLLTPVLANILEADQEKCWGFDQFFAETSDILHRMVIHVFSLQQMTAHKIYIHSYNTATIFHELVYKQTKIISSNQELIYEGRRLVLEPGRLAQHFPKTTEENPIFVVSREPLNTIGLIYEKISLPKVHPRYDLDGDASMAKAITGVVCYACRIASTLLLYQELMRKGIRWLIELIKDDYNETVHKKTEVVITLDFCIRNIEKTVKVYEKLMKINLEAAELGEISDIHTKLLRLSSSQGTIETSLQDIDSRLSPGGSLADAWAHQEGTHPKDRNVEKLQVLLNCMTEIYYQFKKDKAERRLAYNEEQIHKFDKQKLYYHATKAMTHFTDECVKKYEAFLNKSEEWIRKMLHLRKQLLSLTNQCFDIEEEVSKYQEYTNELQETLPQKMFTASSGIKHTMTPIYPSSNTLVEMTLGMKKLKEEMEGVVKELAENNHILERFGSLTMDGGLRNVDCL
Serine/threonine-protein kinase pim-2, sequence (Q9P1W9 whole entry): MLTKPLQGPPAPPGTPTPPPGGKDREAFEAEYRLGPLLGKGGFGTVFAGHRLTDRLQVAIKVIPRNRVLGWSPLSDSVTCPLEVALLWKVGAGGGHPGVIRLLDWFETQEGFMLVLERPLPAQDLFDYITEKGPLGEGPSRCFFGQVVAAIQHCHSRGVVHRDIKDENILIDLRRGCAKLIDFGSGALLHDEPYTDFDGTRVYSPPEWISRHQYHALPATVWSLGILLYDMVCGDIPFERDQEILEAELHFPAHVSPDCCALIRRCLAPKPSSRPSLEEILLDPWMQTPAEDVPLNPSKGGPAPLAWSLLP
Dual specificity tyrosine-phosphorylation-regulated kinase 1B, sequence (Q9Y463 whole entry): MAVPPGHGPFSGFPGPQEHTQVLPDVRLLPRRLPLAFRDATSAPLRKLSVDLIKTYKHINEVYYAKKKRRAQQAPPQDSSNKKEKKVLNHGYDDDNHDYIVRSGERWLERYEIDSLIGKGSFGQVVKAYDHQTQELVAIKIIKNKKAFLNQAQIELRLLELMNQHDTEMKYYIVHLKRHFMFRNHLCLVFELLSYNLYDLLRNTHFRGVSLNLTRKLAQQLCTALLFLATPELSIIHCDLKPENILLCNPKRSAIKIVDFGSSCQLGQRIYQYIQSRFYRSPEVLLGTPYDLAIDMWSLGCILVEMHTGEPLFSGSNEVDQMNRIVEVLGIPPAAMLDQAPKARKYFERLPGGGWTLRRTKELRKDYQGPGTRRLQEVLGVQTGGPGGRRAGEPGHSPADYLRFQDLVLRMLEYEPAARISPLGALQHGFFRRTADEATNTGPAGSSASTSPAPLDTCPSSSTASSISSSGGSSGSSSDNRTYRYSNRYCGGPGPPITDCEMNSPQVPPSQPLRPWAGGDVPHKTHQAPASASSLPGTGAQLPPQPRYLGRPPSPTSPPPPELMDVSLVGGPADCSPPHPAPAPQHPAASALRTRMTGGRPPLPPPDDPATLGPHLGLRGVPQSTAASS
MAP/microtubule affinity-regulating kinase 3, sequence (P27448 whole entry): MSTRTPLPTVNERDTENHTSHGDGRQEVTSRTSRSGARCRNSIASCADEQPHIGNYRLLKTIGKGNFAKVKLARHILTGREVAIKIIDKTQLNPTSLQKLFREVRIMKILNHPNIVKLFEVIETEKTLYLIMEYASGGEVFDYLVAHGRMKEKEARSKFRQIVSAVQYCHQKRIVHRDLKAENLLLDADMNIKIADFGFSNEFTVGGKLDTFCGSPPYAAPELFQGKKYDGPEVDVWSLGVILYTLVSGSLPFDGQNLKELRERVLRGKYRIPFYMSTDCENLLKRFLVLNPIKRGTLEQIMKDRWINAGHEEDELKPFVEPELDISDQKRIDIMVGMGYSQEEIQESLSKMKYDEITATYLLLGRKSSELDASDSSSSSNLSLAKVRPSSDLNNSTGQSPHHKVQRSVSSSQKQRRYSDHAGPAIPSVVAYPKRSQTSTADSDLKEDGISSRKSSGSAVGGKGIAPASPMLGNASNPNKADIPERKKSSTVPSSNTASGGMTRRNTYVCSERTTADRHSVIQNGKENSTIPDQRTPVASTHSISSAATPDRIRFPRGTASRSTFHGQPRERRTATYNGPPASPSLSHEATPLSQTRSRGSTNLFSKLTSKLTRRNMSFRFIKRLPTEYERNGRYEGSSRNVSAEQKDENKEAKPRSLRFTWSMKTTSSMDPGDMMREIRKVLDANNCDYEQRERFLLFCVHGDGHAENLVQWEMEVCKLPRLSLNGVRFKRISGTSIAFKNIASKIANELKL
Serine/threonine-protein kinase PAK 1, sequence (Q13153 whole entry): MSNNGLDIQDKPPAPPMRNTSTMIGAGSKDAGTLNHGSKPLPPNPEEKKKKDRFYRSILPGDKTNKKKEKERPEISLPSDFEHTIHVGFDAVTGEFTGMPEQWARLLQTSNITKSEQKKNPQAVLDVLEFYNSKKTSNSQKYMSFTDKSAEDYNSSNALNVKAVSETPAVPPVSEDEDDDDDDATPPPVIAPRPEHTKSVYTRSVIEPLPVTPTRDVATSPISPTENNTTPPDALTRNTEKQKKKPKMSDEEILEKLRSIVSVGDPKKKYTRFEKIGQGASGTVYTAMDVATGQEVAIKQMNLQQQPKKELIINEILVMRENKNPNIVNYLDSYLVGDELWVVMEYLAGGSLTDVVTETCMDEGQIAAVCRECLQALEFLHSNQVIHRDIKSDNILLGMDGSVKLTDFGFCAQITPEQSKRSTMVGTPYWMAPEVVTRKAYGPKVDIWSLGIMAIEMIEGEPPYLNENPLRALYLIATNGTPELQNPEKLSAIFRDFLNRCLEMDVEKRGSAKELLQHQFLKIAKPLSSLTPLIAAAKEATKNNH
Tyrosine-protein kinase Blk, sequence (P51451 whole entry): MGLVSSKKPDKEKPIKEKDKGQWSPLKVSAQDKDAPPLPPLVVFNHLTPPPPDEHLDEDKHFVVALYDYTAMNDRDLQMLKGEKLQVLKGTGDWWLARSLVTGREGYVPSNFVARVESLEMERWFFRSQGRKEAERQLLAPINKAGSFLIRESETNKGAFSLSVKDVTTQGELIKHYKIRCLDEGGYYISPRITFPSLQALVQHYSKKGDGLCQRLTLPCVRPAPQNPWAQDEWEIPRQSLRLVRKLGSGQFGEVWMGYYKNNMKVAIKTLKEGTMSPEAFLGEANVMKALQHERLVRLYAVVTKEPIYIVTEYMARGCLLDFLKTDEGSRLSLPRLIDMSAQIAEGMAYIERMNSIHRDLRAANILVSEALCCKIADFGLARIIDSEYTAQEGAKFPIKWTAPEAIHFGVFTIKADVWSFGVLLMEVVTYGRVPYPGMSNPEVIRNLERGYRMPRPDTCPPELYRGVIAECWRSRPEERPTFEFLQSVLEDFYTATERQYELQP
RAC-alpha serine/threonine-protein kinase, sequence (P31749 whole entry): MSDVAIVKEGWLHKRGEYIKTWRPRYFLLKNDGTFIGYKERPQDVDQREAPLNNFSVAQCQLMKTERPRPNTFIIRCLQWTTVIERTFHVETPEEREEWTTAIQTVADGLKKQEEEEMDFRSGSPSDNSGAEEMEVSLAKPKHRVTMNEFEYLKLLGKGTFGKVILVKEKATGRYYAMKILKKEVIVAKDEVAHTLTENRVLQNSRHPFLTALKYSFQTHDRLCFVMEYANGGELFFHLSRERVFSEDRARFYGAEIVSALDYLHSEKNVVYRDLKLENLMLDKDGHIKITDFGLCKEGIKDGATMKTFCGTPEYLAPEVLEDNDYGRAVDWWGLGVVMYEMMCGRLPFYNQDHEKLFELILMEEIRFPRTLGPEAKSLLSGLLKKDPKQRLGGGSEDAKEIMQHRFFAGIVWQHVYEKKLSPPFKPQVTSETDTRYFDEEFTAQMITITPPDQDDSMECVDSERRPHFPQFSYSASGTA
Cyclin-dependent kinase 8, sequence (P49336 whole entry): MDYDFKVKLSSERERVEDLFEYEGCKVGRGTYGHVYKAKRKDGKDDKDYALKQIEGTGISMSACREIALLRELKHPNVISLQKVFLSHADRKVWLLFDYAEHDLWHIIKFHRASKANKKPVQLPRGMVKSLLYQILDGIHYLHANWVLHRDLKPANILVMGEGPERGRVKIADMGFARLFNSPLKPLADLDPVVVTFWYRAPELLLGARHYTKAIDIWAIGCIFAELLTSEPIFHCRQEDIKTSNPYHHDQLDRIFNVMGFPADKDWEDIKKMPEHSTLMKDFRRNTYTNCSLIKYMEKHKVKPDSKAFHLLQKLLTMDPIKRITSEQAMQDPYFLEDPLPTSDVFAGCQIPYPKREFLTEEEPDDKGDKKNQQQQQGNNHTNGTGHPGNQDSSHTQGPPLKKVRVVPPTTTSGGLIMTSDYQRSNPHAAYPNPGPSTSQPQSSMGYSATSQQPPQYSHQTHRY

In general, IC50 refers to the concentration that gives 50% inhibition. Consider `O=C1C=C(NCc2ccccc2)c2ccccc2C1=O`, for which, in assay [1], the IC50 was 2.5 µM (active).
What is called Ki is a dissociation constant, usually derived from enzyme kinetics or from competition with a known ligand. Consider `CCOC(=O)c1cn(-c2ccc(O)cc2C)c2cc(-c3ccncc3)ccc2c1=O`, for which the Ki in assay [2] is > 7.94 µM (inactive); in assay [3] it was > 10 µM (inactive); in assay [4], > 10 µM (inactive); in assay [5] it was > 1.58 µM (inactive); in assay [6], > 6.31 µM (inactive); in assay [7] it was > 5.01 µM (inactive). In addition, the figures for the Ki in [8], in assay [9] and in assay [10] were > 5.01 µM (inactive), > 7.94 µM (inactive) and > 1.58 µM (inactive), respectively.
Consider `Cc1cc(=O)[nH]nc1-c1ccc(NC(=O)Nc2cc(C(F)(F)F)ccc2F)c(Cl)c1`, for which the Ki in assay [11] is > 3.16 µM (inactive); in assay [12] it was > 3.16 µM (inactive); in [13], 0.158 µM (active); in assay [14], > 2.51 µM (inactive); in [15] it was > 3.16 µM (inactive); in [16], > 2.51 µM (inactive). Also, the Ki was 0.158 µM (active) in assay [17]; > 3.98 µM (inactive) in [18]; > 2.51 µM (inactive) in assay [19]; > 3.16 µM (inactive) in assay [20]; > 3.98 µM (inactive) in assay [21].
